Data taken from US20110054039A1, “USE OF ALKYL SULFATES OR SULFONATES AGAINST PROPIONIBACTERIUM ACNES” (priority 2008, published 2011).
Converted amounts (≈) assume the structure as drawn. Counter-ions that a name gives are not always drawn. Like-named read-outs stand apart in the source and are kept apart here.

Columns and labels:
Assay type in all cases: cell-based
[1] = system: Propionibacterium acnes NCTC 737; assay: Minimum Inhibitory Concentration (MIC) assay, broth microdilution; conditions: P. acnes NCTC 737, Wilkins-Chalgren broth pH 6.0, anaerobic, 37° C., 72 hours
Description: (§1) The test micro-organism represented the cutaneous propionibacteria. […] The propionibacteria are clinically significant due to their involvement in acne. This is a very common, complex and multi-factorial skin disease in which P. acnes and other Propionibacterium spp. […] They are also opportunistic pathogens in compromised hosts.
(§2) The propionibacteria were cultured and maintained on Wilkins-Chalgren Anaerobe Medium (agar and broth) at pH 6.0; all cultures were incubated anaerobically at 37° C. for 72 hours.
This is a standard international method for quantitatively assessing the antimicrobial activity of a compound in a liquid medium. […] The culture media were as described above.
The wells were inoculated with a liquid suspension of freshly grown micro-organism and incubated under the conditions described above. After incubation, the microtitre plate was examined visually (with the aid of a light box) for cloudiness in each well, which would indicate microbial growth. The MIC value was recorded as the lowest concentration of test compound required to inhibit microbial growth, ie the lowest concentration for which the liquid in the well remained clear.
The assays included both negative (culture medium with no micro-organisms) and positive (culture medium plus diluting solvent plus micro-organism) controls.
(§3) MIC, MBC and DDA assays, as described above, were carried out using as the test compound sodium n-tetradecyl sulphate (STS, ex Sigma Aldrich, UK), dissolved in distilled water. All the experiments were conducted in triplicate. For the DDA experiments, 200 μg of the test compound was loaded onto each disc.
(§4) The MIC/MBC experiments were conducted in triplicate, with the exception of those for SDS and ADS which were conducted in duplicate. The DDAs were performed either in triplicate, in which case standard deviations are quoted in parentheses, or as a single replicate. For the DDA experiments, 200 μg of the test compound was loaded onto each disc.

[2] = system: Propionibacterium acnes NCTC 737; assay: Disc Diffusion Assay (DDA); conditions: P. acnes NCTC 737, 200 μg of test compound per disc; for zone of inhibition at 200 µg/disc: Cutibacterium acnes, NCTC737, read-out: DDA (diameter of zone of inhibition)
Description: as §1, §2
This is an internationally recognised standard method for qualitatively assessing the antimicrobial activity of a compound.
(§5) A sterile paper disc was impregnated with a sample of the test compound in a suitable solvent and 30 minutes allowed for the solvents to evaporate (where possible). The disc was then placed on an agar plate onto which the test micro-organism had been inoculated. The plate was then incubated under the conditions described above, following which it was examined visually for signs of microbial growth. […] The diameter of this zone of ‘inhibition’ was measured using a ProtoCOL™ automated zone sizer (Synbiosis, Cambridge, UK).
as §3, §4

[3] = system: Propionibacterium acnes NCTC 737; assay: Supplemented Disc Diffusion Assay (agar with salt or lipid); conditions: P. acnes NCTC 737, 200 μg per disc; for zone of inhibition at 200 µg/disc: Cutibacterium acnes, NCTC737, 72 h
Description: as §1, §2, §5
Performance under these conditions can provide a more reliable indication of activity on topical application.
as §3, §4

[4] = system: Propionibacterium acnes NCTC 737; assay: Minimum Biocidal (Bactericidal) Concentration (MBC) assay; conditions: P. acnes NCTC 737; for MBC: sub-culture on antibiotic-free agar after MIC assay
Description: as §1, §2
This assay, normally carried out after an MIC assay, determines the minimum concentration of a compound that is lethal to the micro-organism being tested.
These samples were then individually sub-cultured on antibiotic-free agar medium, under the incubation conditions described above. Following incubation they were examined visually for microbial growth.
as §3, §4

[5] = Cutibacterium acnes, NCTC737, read-out: MIC
[6] = agar supplemented with sodium chloride (100 mM), read-out: DDA + salt
[7] = agar supplemented with triolein at 1% v/v, read-out: DDA + lipid
[8] = Cutibacterium acnes, NCTC737, read-out: MBC

| Compound | MIC [1, 5] [µg/mL] | MIC [1] [µg/mL] | zone of inhibition at 200 µg/disc [2] [mm] | zone of inhibition at 200 µg/disc [3, 6] [mm] | zone of inhibition at 200 µg/disc [3, 7] [mm] | MBC [4, 8] [µg/mL] | MIC/MBC ratio [4] | MBC [4] [µg/mL] | DDA (diameter of zone of inhibition) [2] [mm] | DDA + salt ([3]; agar supplemented with sodium chloride (100 mM)) [mm] | DDA + lipid ([3]; agar supplemented with triolein at 1% v/v) [mm] |
| --- | --- | --- | --- | --- | --- | --- | --- | --- | --- | --- | --- |
| CCCCCCCCCCCCOS(=O)(=O)O.N [Ammonium dodecyl sulphate (ADS), ammonium dodecyl sulphate] | 31.2 |  | 22.2 | 24.1 | 20.3 | 125 | 0.25 |  |  |  |  |
| CCCCCCCCCCCC(=O)O [Laurie acid, reference compound] |  | 15.6 (≈ 0.0779 mM) |  |  |  |  |  | 31.25 (≈ 0.156 mM) |  |  |  |
| CCCCCCCCCCCCOS(=O)(=O)[O-].[Li+] [Lithium dodecyl sulphate, lithium dodecyl sulphate] | 15.6 |  | 30 | 30.5 | 30.2 | 15.6 | 1 |  |  |  |  |
| CCCCCCCS(=O)(=O)[O-].[Na+] [Sodium 1-heptane sulphonate, sodium 1-heptane sulphonate] | > 250 |  | 0 | 0 | 10.6 | > 250 |  |  |  |  |  |
| CCCCCCCCCS(=O)(=O)[O-].[Na+] [Sodium 1-nonanesulphonate, sodium 1-nonanesulphonate] | > 250 |  | 0 | 0 | 0 | > 250 |  |  |  |  |  |
| CCCCCCCCS(=O)(=O)O.[Na] [Sodium 1-octane sulphonic acid, sodium 1-octane sulphonic acid] | > 250 |  | 0 | 0 | 0 | > 250 |  |  |  |  |  |
| CCCS(=O)(=O)[O-].O.[Na+] [Sodium 1-propanesulphate monohydrate, sodium 1-propanesulphate monohydrate] |  | >250 |  |  |  |  |  | >250 | 0.00 | 0.00 | 0.00 |
| CCCCCCCCCCCCOS(=O)(=O)[O-].[Na+] [Sodium dodecyl sulphate (SDS), sodium dodecyl sulphate] | 31.2 |  | 30.7 | 28.2 | 28.2 | 62.5 | 0.5 |  |  |  |  |
| CCCCCCOS(=O)(=O)[O-].[Na+] [Sodium n-hexyl sulphate, sodium n-hexyl sulphate] | > 250 |  | 0 | 0 | 0 | > 250 |  |  |  |  |  |
| CCCCCOS(=O)(=O)[O-].[Na+] [Sodium n-pentyl sulphate, sodium n-pentyl sulphate] | > 250 |  | 0 | 0 | 0 | > 250 |  |  |  |  |  |
| CCCCCCCCCCCCCC(=O)O [myristic acid, reference compound] | > 1000 |  |  |  |  | > 1000 |  |  |  |  |  |
| CCCCCCCCCCCCCCCC(=O)O [palmitic acid, reference compound] | > 1000 |  |  |  |  | > 1000 |  |  |  |  |  |

Second part, led by results:

| MIC [1, 5] [µg/mL] | MIC [1] [µg/mL] | Compound | zone of inhibition at 200 µg/disc [2] [mm] | zone of inhibition at 200 µg/disc [3, 6] [mm] | zone of inhibition at 200 µg/disc [3, 7] [mm] | MBC [4, 8] [µg/mL] | MIC/MBC ratio [4] | MBC [4] [µg/mL] | DDA (diameter of zone of inhibition) [2] [mm] | DDA + salt ([3]; agar supplemented with sodium chloride (100 mM)) [mm] | DDA + lipid ([3]; agar supplemented with triolein at 1% v/v) [mm] |
| --- | --- | --- | --- | --- | --- | --- | --- | --- | --- | --- | --- |
| 31.2 |  | CCCCC(CC)CCC(CC(C)C)OS(=O)(=O)O (stereo not shown) [7-ethyl-2-methyl-4-hendecanol sulphate sodium salt] | 28.5 | 30.8 | 28.6 | 62.5 | 0.5 |  |  |  |  |
| > 250 |  | CCCCS(=O)(=O)[O-].[Na+] [Sodium 1-butane sulphonate, sodium 1-butane sulphonate] | 0 | 0 | 0 | > 250 |  |  |  |  |  |
| > 250 |  | CCCCCCCCCCS(=O)(=O)[O-].[Na+] [Sodium 1-decane sulphonate, sodium 1-decane sulphonate] | 0 | 0 | 0 | > 250 |  |  |  |  |  |
| 125 |  | CCCCCCCCCCCCS(=O)(=O)[O-].[Na+] [Sodium 1-dodecanesulphonate, sodium 1-dodecanesulphonate] | 18.1 | 23 | 18.4 | 250 | 0.5 |  |  |  |  |
| 1.95 |  | CCCCCCCCCCCCCCCCS(=O)(=O)[O-].[Na+] [Sodium 1-hexadecane sulphonate, sodium 1-hexadecane sulphonate] | 0 | 0 | 0 | 3.9 | 0.5 |  |  |  |  |
| 125 |  | CCCCCCCCCCCCCCCCCCS(=O)(=O)O.[Na] [Sodium 1-octadecane sulphonic acid, sodium 1-octadecane sulphonic acid] | 0 | 0 | 0 | > 250 | <0.5 |  |  |  |  |
| 0.98 |  | CCCCCCCCCCCCCCCS(=O)(=O)O.[Na] [Sodium 1-pentadecane sulphonic acid, sodium 1-pentadecane sulphonic acid] | 11.8 | 12.1 | 0 | 3.9 | 0.25 |  |  |  |  |
| 3.9 |  | CCCCCCCCCCCCCCS(=O)(=O)O.[Na] [Sodium 1-tetradecane sulphonic acid, sodium 1-tetradecane sulphonic acid] | 11.2 | 12.4 | 9.61 | 15.6 | 0.25 |  |  |  |  |
| 15.6 |  | CCCCCCCCCCCCCS(=O)(=O)O.[Na] [Sodium 1-tridecane sulphonic acid, sodium 1-tridecane sulphonic acid] | 28.6 | 29.3 | 27.4 | 31.2 | 0.5 |  |  |  |  |
| 250 |  | CCCCCCCCCCOS(=O)(=O)[O-].[Na+] [Sodium decyl sulphate, sodium decyl sulphate] | 0 | 0 | 0 | > 250 | <1 |  |  |  |  |
| 0.98 |  | CCCCCCCCCCCCCCCCOS(=O)(=O)[O-].[Na+] [Sodium hexadecyl sulphate, sodium hexadecyl sulphate] | 36.3 | 32.4 | 39.8 | 1.95 | 0.5 |  |  |  |  |
| 250 |  | CCCCCCCCCOS(=O)(=O)[O-].[Na+] [Sodium n-nonyl sulphate, sodium n-nonyl sulphate] | 0 | 0 | 0 | 250 | 1 |  |  |  |  |
